From patent publication US20260242390A1, “TOTAL SYNTHESES OF PORTIMINE A AND ANALOGUES THEREOF AS SMALL MOLECULE MODULATORS OF NMD3” (priority 2023, published 2026)

Assays:
[1] = system: HT-1080; assay: Broad cell line profiling, HT-1080; type: cell-based; conditions: HT-1080, Human Fibrosarcoma; read-out: PA IC50
Text: (§1) • A panel of human and mouse cancer cell types used to assess the breadth of PA activity, including multiple therapy resistant metastatic mesenchymal tumor cell lines and primary glioblastoma patient-derived metastatic stem/tumor initiating cell populations.

[2] = system: A673; assay: Broad cell line profiling, A673; type: cell-based; conditions: A673, Human Ewings Sarcoma; read-out: PA IC50
Text: as §1

[3] = system: SUM159; assay: Broad cell line profiling, SUM159; type: cell-based; conditions: Homo sapiens; SUM159, Breast Adenocarcinoma; read-out: PA IC50
Text: as §1

[4] = system: 786-O; assay: Broad cell line profiling, 786-O; type: cell-based; conditions: Homo sapiens, 786-0, Renal Adenocarcinoma, read-out: PA IC50
Text: as §1

[5] = system: XPO1; assay: XPO1 protein level in Jurkat cells; type: cell-based, human
Procedure: (§2) FIG. 7. Portimine A targets NMD3 and prevents polysome formation. […] (A) Immunoblot showing reduced NMD3 levels in shNMD3 Jurkat and HeLa cells. […] Jurkat cells were treated with 12.5 nM of PA for 12 or 24 hours. Jurkat and HeLa cells were treated with 5 nM or 150 nM of PA for 24 hours. Data represents mean±SD of biologically replicated experiments (n=3). […] Cell lysates were fractionated by sucrose gradient (5-50%) and each fraction were analyzed by western blot. eIF6 levels increase in 60S subunit fraction and decrease in ribosome-free fractions after PA treatment. RPS6, a 40S and polysome subunits marker, is decreased in polysome fractions after PA treatment. Results are representative of three independent experiments. […] Relative protein levels in each fraction were normalized to the peak fraction of the indicated protein from the DMSO cells and plotted. Data represents mean±SD of biologically replicated experiments (n=3). Statistical analysis was performed using multiple unpaired Student t-test. * p≤0.05; ** p≤0.01; *** p≤0.005; **** p≤0.0001. Treatment condition: Jurkat (5 M per condition); Incubate cells (1 M/mL) with inhibitors for 6 hr, 12 hr and 24 hr, respectively.
(§3) • 1) Portimine A and its functional analogs show stereo-selective acute toxicity in cancer cells (FIG. 1). […] (B) Structure of portimine related analogs: phenyl-portimine A (Ph-PA, 36) and epi-portimine A (ePA, 38). […]

[6] = system: shNMD3 Jurkat and HeLa cells; assay: Toxicity in NMD3 knock-down (shNMD3) cells; type: cell-based, human; conditions: Jurkat 12.5 nM 12 or 24 hours; Jurkat and HeLa 5 nM or 150 nM 24 hours
Procedure: as §2, §3

[7] = system: Jurkat cells; assay: Polysome profiling; type: cell-based, human; conditions: 6 hours at 50 nM
Procedure: as §2, §3

SMILES: C=CC1=C[C@@H]2[C@@H]3O[C@]4(CC[C@H](O4)C(C)C[C@@H](O)C3=O)CC(O)C3=NCC[C@@]32CC1 (stereo partly shown) [PA, portimine A]
- IC50 [1]: 0.83 nM
- IC50 [2]: 2.5 nM
- IC50 [3]: 1.9 nM
- IC50 [4]: 1.8 nM
- XPO1 levels [5]: unaffected
- toxic effects in shNMD3 compared to shCtrl cells [6]: less toxic effects
- polysome profiling, protein translation [7]: protein translation inhibition
